How the values were obtained:
[1] = tested on: 12-week-HFHS-diet-fed obese mice; experiment: Intranasal PZ6005 in obese mice: body weight, tissue-specific adiposity, fat mass; type: in vivo, C57BL/6J mice; conditions: for body weight lost at the end of the experiment: day 14
Procedure: (§1) Metabolic measurements were undertaken in the Melbourne Mouse Metabolic Phenotyping Platform (The University of Melbourne, Australia). Glucose tolerance tests were performed on 6 h fasted conscious mice respectively by injecting D-glucose (2 mg/g of lean body mass and 1 mg/g lean mass for db/db and HFHS+STZ mice) into the peritoneal cavity and measuring glucose in tail blood immediately before and at 15, 30, 45, 60, 90 and 120 min after injection using an Accu-Check glucometer (Roche, Germany). The areas under glucose excursion curves were determined and expressed as mmol/l×min. Fasted (12 h fast) plasma insulin or glucose levels were determined using a Rat/Mouse Insulin ELISA (EZRMI-13K, Merck Millipore, CA) or an Accu-Check glucometer respectively. The HOMA-IR was calculated using the equation [(glucose×insulin)/405]. Adiposity was measured using TD-NMR minispec (Bruker Optics Inc., Billerica, MA).

[2] = tested on: 12-week HFHS fed obese mice; experiment: Example 21: glycaemic control in treatment and off-treatment phase (GTT, ITT, fasting glucose); type: in vivo, C57BL/6J male mice; conditions: treatment phase
Description: Under 2-5% (v/v) isoflurane in 1 L/min oxygen, 12-week-HFHS-diet-fed and aged-matched chow-fed C57BL/6J male mice were implanted stereotaxically with guide cannulas in the right lateral ventricle (measurement of the coordinates were described as Chapter 2; Anterior/Posterior: −1.00 mm, Medial/Lateral: +0.20 mm). Guide cannulas were made by polishing the shaft of hypodermic needles (19 Gauge, Livingstone, Australia) to 1.00 mm long. The tip of the guide cannula was positioned 1.00 mm above the target region (1.00 mm ventral to the surface of the mouse skull). The mice were allowed 2-3 days for recovery before further experimental manipulations.
Awake 12-week-HFHS-diet-fed and aged-matched chow-fed C57BL/6J male mice were restrained by scruffing and inverted in the head-down position. […]
Glucose tolerance test was conducted on 6-hrs fasted conscious mice by injecting D-glucose (2 mg/g of lean body mass) into the peritoneal cavity and measuring blood glucose levels by taking tail blood immediately at 0, 15, 30, 60, 90 and 120 mins after injection using an Accu-Check glucometer (Roche, Germany). The area under the glucose excursion curve was determined and represented as mmol/L×min. Fasted (24 hr fast) glucose level was measured using an Accu-Check glucometer. […]

[3] = tested on: insulin induced p-AKT signalling in the ARC; experiment: I.C.V. fluorosamine: insulin-induced p-AKT in the ARC; type: in vivo, C57BL/6J mice; conditions: following 10 days I.C.V. treatment
Procedure: (§2) Mice were injected intraperitoneally with vehicle (PBS) or insulin (3 mU/g, i.p., Actrapid, Nova Nordisk, Denmark) and mice were transcardially perfused (as described above) 15 min with 10% neutral buffered formalin. The brains were post-fixed for 16 h on a rocking platform at RT and then kept for two days in 30% sucrose in PBS to cryoprotect the tissue, before freezing on dry ice. 30 μm sections were cut in the coronal plane throughout the entire rostral-caudal extent of the hypothalamus. Sections were pre-treated for 10 mins in 0.3% glycine, washed in PBS-T and incubated for 10 min in 0.03% SDS. Sections were then blocked in 5% blocking buffer for 1 h at RT and incubated for 48 h with rabbit anti-p-AKT (Ser-473) (1:300; #4060, Cell Signaling Technology, Beverly, MA) in 1% blocking buffer. Sections were then incubated in 5% blocking buffer containing either goat anti-rabbit Alexa Fluor 647 (ab150083, Abcam, Cambridge, UK) or biotinylated goat anti-rabbit (BA-1000, Vector Laboratories, CA, no sodium azide in blocking buffer). […]

[4] = tested on: 12-week HFHS fed obese mice; experiment: Example 21: 14-day treatment and off-treatment phase, weight rebound, body composition, metabolic rate, food intake; type: in vivo, C57BL/6J male mice
Procedure: To induce diet-induced obesity in adulthood, the mice were ad libitum access to water and high-fat-high-sugar (HFHS) diet (43% of total energy from fat, SF04-001, Speciality Feeds, Australia) starting at eight weeks of age for 12 weeks. Aged-matched chow-fed C57BL/6J male mice were ad libitum access to standard chow diet throughout full duration of the experiment.
Mice adiposity and lean mass were measured via the TD-NMR minispec (Bruker Optics Inc., USA) acquiring EchoMRI-900 Body Composition Analyser (EchoMRI LLC, USA). Interscapular brown adipose tissue, inguinal and epidermal white adipose tissues and the liver were weighed to determine tissue-specific adiposity.
At day 15, treatments were discontinued however all groups continued to receive ad libitum access to HFHS diet to assess the rebound following treatment cessation.

[5] = tested on: ARC insulin receptor signalling (pAKT); experiment: I.C.V. PZ6005 and/or S.C. liraglutide: ARC pAKT +ve. cells after insulin; type: in vivo, C57BL/6j mice; conditions: after 28-day treatment; compared with liraglutide alone group
Procedure: as §2

[6] = tested on: 12-week HFHS fed obese mice; experiment: I.C.V. fluorosamine in obese mice: body weight, adiposity, energy expenditure, food intake; type: in vivo, C57BL/6J mice; conditions: I.C.V. for 10 days
Procedure: as §1
Mice were acclimated for 24 h and then monitored for 48 h in an environmentally controlled Promethion Metabolic Screening System (Sable Systems International, NV) fitted with indirect open circuit calorimetry, food consumption and activity monitors to measure activity, caloric intake and energy expenditure. Respiratory quotients were calculated as the ratio of CO2 production over O2 consumption respiratory exchange ratio and energy expenditure was calculated using the Weir equation (Kcal h−1=60×(0.003941×VO2+0.001106×VCO2). To account for difference in body mass/composition energy expenditure was analysed and adjusted using ANCOVA using scripts available at the National Mouse Metabolic Phenotyping Centers (MMPC, Nashville, TN, USA) Energy Expenditure Analysis Page (https://www.mmpc.org/shared/regression.aspx).
Under isoflurane anaesthetic 12-week HFHS fed C57BL/6J or AgRP-Cas9 mice were implanted stereotaxically with guide cannulas into the right lateral ventricle (0.2 mm posterior, 1.0 mm lateral from bregma). Guide cannula was positioned 1.3 mm above the injection site (1 mm ventral to the surface of the skull). AgRP-Cas9 mice were treated with either AAV-gScrambled or AAV-gIR and underwent guide cannula placement 7 days post AAV administration. Mice were administered I.C.V. vehicle (ddH2O), fluorosamine (100 μg/animal/day or 250 μgl/animal/day) in a volume of 2 μl/animal and all compounds were delivered approximately 1 h before lights off (7 pm).

[7] = intranasal 1 mg treatment, 14 days

CC(=O)NC1C(OC(C)=O)OC(COC(C)=O)[C@@H](F)C1OC(C)=O (stereo partly drawn) [PZ6005, per-O-acetylated-4-F-N-acetylglucosamine]
whole-body metabolic improvements observed with intracerebroventricular delivery ([1]; diet-induced obese mice, intranasal 14 days): recapitulated
mass of epiWAT, BAT and liver [1, 7]: decreased
post-treatment fat mass decreased by, compared to the pre-treatment mass [1, 7]: 12.59±2.29%
body weight lost at the end of the experiment ([1]; intranasal 1 mg treatment): 16.32±1.41%
day from which weight was robustly decreased ([1]; intranasal 1 mg/animal/day): 7 days
post-treatment fat mass diminished by, compared to the pre-treatment mass ([1]; intranasal 5 mg treatment, 14 days): 23.21±9.27%
day from which weight was robustly decreased ([1]; intranasal 5 mg/animal/day): 3 days
body weight lost at the end of the experiment ([1]; intranasal highest dose (5 mg)): 6.36±0.88%
tissue mass ([1]; intranasal highest dose, 14 days): remarkedly reduced
glucose tolerance / glycaemic regulation [2]: improved glucose tolerance
insulin induced p-AKT signalling in the ARC [3]: enhanced
baseline fat mass, without affecting lean mass ([4]; 14 days after terminating treatments, compared to vehicle and liraglutide alone): significant decrease
mean weight loss from baseline (day 0) ([4]; day 14, PZ6005 100 μg/animal I.C.V. every second day, liraglutide 200 μg/kg daily): 15.08±1.45%
liver mass ([4]; end of experiment, vs other littermates): lower liver mass
day of return to baseline body weight ([4]; off-treatment phase): 30.00 ± 1.72 days
oxygen consumption and whole-body energy expenditure ([4]; treatment phase, without effects on ambulatory activity): elevated
ARC pAKT +ve. cells [5]: more ARC pAKT +ve. cells
adiposity [6]: reduced adiposity
body weight [6]: promoted weight loss
energy expenditure ([6]; independently of ambulatory activity): enhanced energy expenditure
food intake ([6]; through enhanced satiety): supressed food intake

Reference: US20260191933A1, “PHARMACEUTICAL COMBINATIONS AND USES THEREOF” (The University of Melbourne, priority 2022, published 2026)
